Results: patent publication US7795254B2, “Benzomorpholine derivatives and methods of use” (Amgen Inc., priority 2007, dated 2010)
Read-outs that look alike come from different tables or passages of the source.

Key:
HUVEC = experiment: VEGF induced proliferation, HUVEC cell-based assay; conditions: Homo sapiens
[1] = test system: VEGF-induced rat corneal angiogenesis; experiment: VEGF-induced rat corneal angiogenesis assay; format: in vivo; conditions: for Average # of Vessels: 7 days
Experimental: (§1) Tables 2 through 6 below describe the results obtained in the rat corneal in vivo model of angiogenesis for (1) reference compound (free base) 1, (2) Compound A (free base), and (3) the hydrochloride salt of Compound A. A VEGF-induced rat corneal angiogenesis assay was performed using the following procedure: • In Life Aspects: Female CD rats weighing approximately 250 grams were randomized into one of six treatment groups. On the day of surgery the rats were temporarily anesthetized using isoflurane. A vertical incision was made on the midline of the cornea and a pocket was created to separate the connective tissue layers of the stroma. The distance between the apex of the pocket and the limbus was approximately 1.8 mm. A presoaked nylon filter disk was inserted to the apex of the pocket (in the case of the control treatment group, the disks were soaked in a buffer containing bovine serum albumin; in the remaining treatment groups, the disks were soaked in buffer containing bovine serum albumin plus human VEGF to induce angiogenesis). The different treatment groups were then dosed daily with either vehicle (Ora Plus™, a commercially available vehicle) or a designated amount of test compound formulated in vehicle. • Study Termination and Analysis: After seven days, the rats were euthanized and the implanted corneas photographed using a Nikon SV-3 Ophthalmic Slit Lamp. Numerical data were generated from the digital images using the Metamorph image analysis system (Universal Imaging). Three endpoints were analyzed on each corneal image: (1) disk placement distance from the limbus, (2) number of vessels intersecting a perpendicular line at the midpoint of the disk placement distance, and (3) blood vessel area, as determined by thresholding and automated pixel counting. Only the number of blood vessels is shown in the tables as this endpoint correlated well with the blood vessel area. • Statistical Analysis: Results were analyzed with the StatView statistical program using one-way ANOVA, followed by Fisher's least significant difference test. Data are presented as mean±SE and P<0.05 was considered significant. AUC and ED50 values were calculated using methods well known in the art.

[2] = Exposure (AUC) in the rat corneal angiogenesis study; format: in vivo; conditions: for AUC: female, CD, rat, in vivo, oral, Table 3, free base
Experimental: as §1

[3] = Rat pharmacokinetic profile; conditions: in vivo
Source text: (§2) Table 7 provides additional information about the pharmacokinetic profiles of reference compound 1 and Compound A. The data contained in this table was obtained using methods well known in the art.

Rat Liver Microsome = experiment: Rat liver microsome clearance; format: in vitro ADME; conditions: rat liver microsomes
Source text: as §2

Human Liver Microsome = experiment: Human liver microsome clearance; format: in vitro ADME; conditions: human liver microsomes
Source text: as §2

liver microsomes = experiment: In vitro metabolite profiling in liver microsomes; format: in vitro ADME; conditions: 10 μM, liver microsomes 1 mg/mL (human, mouse, rat, monkey, rabbit, dog), NADPH, 37° C., 1 hr
Experimental: Incubation mixtures were prepared including [14C]-Compound A (10 μM, 0.5 μCi), liver microsomes at 1 mg/mL (human, mouse, rat, monkey, rabbit, dog), MgCl2 (3 mM), and potassium phosphate buffer (100 mM). The reaction was started by adding NADPH (1 mM) and incubations were carried out in a shaking water bath maintained at 37° C. for 1 hr. The reactions were stopped by adding 1 volume of ACN:MeOH 1:1 mixture; vortex mixed; centrifuged at 16000×g. The supernatants were analyzed on a reverse phase HPLC (Agilent 1100, Agilent systems, DE) in line with a radiomatic (β-ram, IN/US systems, FL) detector and an LTQ ion-trap mass spectrometer (ThermoFisher, San Jose, Calif.). HPLC separations were carried out on a phenyl-hexyl luna (150×4.6 mm, 5 μm, Phenomenex Inc) column maintained at 40° C. at a flow rate of 1 mL/min. A binary mobile phase consisting of 10 mM ammonium formate in H2O (solvent A) and 0.1% formic in MeOH (solvent B) was employed under the following gradient conditions: 0 to 2 min, 95% A; 2 to 10 min, 95 to 75% A; 10 to 40 min, 75 to 60% A; 40 to 60 min, 60 to 55% A; 60 to 77 min, 55 to 25% A; 77 to 78 min, 25 to 5% A; 78 to 83 min, 5% A; 83 to 84 min, 5 to 95% A; 84 to 90 min, 95% A. The flow post-column was split such that 80% went to radiomatic detector and the remaining 20% to MS. […]

cytochrome P450 3A4 = cytochrome P450 3A4 (Homo sapiens, UniProt P08684); experiment: Incubation with recombinant human cytochrome P450 3A4; format: in vitro ADME; conditions: fortified with NADPH
cytochrome P450 3A4, sequence (P08684 whole entry): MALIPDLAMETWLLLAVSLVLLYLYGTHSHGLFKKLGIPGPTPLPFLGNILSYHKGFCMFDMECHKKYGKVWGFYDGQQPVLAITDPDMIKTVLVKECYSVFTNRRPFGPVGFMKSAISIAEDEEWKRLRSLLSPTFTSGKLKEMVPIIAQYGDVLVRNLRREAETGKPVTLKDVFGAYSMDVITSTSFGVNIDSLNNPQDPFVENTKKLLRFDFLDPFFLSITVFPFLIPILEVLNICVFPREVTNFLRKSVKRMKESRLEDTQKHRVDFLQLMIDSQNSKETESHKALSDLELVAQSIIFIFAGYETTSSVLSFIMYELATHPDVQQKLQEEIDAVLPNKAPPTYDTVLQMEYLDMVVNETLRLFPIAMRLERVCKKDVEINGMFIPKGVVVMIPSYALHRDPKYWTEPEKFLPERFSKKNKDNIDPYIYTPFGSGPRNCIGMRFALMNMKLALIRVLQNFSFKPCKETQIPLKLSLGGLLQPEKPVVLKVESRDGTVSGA
Source text: The following compounds identified in Table 16 below were the significant metabolites formed in all species.

- AUC at ED50 ([2]; Table 6, HCl salt Run #3): 338 ng·h/mL
- average AUC at the ED50 ([2]; average of HCl salt studies of Tables 4 and 6 and free base study of Table 3): 313 ng·h/mL
- AUC ([2]; 0.03 mg/kg, 0.03 mg/kg daily): 109 ng·h/mL
- AUC ([2]; 0.1 mg/kg, 0.1 mg/kg daily): 203 ng·h/mL
- AUC ([2]; 0.3 mg/kg, 0.3 mg/kg daily): 730 ng·h/mL
- AUC ([2]; 1 mg/kg, 1.0 mg/kg daily): 2370 ng·h/mL
- clearance ([3]; intravenous): 6.67 mL/min/kg
- Vd ([3]; intravenous, read-out: Rat Volume of Distribution): 1 L/kg
- half-life ([3]; iv, I.V., read-out: Rat I.V. T1/2 (converted)): 126 min
- bioavailability ([3]; po, 2 mg/kg, P.O., 2 mpk, read-out: Rat P.O. (2 mpk) % F): 59%
- AUC(0-inf) ([3]; po, 2 mg/kg, P.O., 2 mpk, read-out: Rat P.O. (2 mpk) AUC0-inf): 2810 ng·h/mL
- AUC(0-t) ([3]; po, 2 mg/kg, P.O., 2 mpk, read-out: Rat P.O. (2 mpk) AUC0-t): 2800 ng·h/mL
- half-life ([3]; po, 2 mpk, P.O., read-out: Rat P.O. T1/2 (converted)): 120 min
- Rat Liver Microsome (Rat Liver Microsome): 45 µL/min/mg
- Human Liver Microsome (Human Liver Microsome): 17 µL/min/mg
- turnover in liver microsomes (liver microsomes): Substantial turnover
- metabolites formed with recombinant human cytochrome P450 3A4 (cytochrome P450 3A4): These same metabolites were also formed
Compound: COc1cc2nccc(Oc3ccc4c(c3)OCCN4C(=O)Nc3cc(C)on3)c2cc1OC [Compound A, 7-((6,7-bis(methyloxy)-4-quinolinyl)oxy)-N-(5-methyl-3-isoxazolyl)-2,3-dihydro-4H-1,4-benzoxazine-4-carboxamide]
- IC50 (HUVEC): 2 nM
- ED50 ([1]; Rattus norvegicus, Table 3, free base, number of vessels, read-out: ED50): 0.16 mg/kg
- ED50 ([1]; Rattus norvegicus, Table 6, HCl salt Run #3, number of vessels, read-out: ED50): 0.14 mg/kg
- Average # of Vessels ([1]; Table 3, free base, VEGF disc + 0.03 mg/kg daily): 24.5
- Average # of Vessels ([1]; Table 3, free base, VEGF disc + 0.1 mg/kg daily): 24.9
- Average # of Vessels ([1]; Table 3, free base, VEGF disc + 0.3 mg/kg daily): 5.4
- Average # of Vessels ([1]; Table 3, free base, VEGF disc + 1.0 mg/kg daily): 2.3
- ED50 ([1]; free base, review of Tables 2 and 3): 0.16 mpk
